Assay results as given in patent publication US20220000911A1, “COMBINATION OF GOLD COMPLEXES WITH OLAPARIB OR OTHER PARP1/2 INHIBITORS FOR USE IN THE TREATMENT OF CANCER RESISTANT TO SAID PARP1/2 INHIBITORS” (Varsity Pharmaceuticals Limited, priority 2020, published 2022).

Key:
[1] = tested on: olaparib resistant A2780 ovarian cancer cells; assay: CellTiter Glo proliferation inhibition, olaparib resistant A2780 cells, single agents; type: cell-based; conditions: for IC50 / inhibition at 60 pM / inhibition at 0.00017 µM / inhibition at 0.00051 µM / inhibition at 0.00152 µM / inhibition at 0.00457 µM / inhibition at 0.01372 µM / inhibition at 0.04115 µM / inhibition at 0.12346 µM / inhibition at 0.37037 µM / inhibition at 10 µM / inhibition at 30 µM: Homo sapiens; for IC50: A2780; for inhibition at 60 pM / inhibition at 0.00017 µM / inhibition at 0.00051 µM / inhibition at 0.00152 µM / inhibition at 0.00457 µM / inhibition at 0.01372 µM / inhibition at 0.04115 µM / inhibition at 0.12346 µM / inhibition at 0.37037 µM / inhibition at 10 µM / inhibition at 30 µM / Mean Inhibition (n = 3): olaparib resistant A2780; for inhibition at 60 pM: test conc. 0.06 nM; for inhibition at 60 pM / inhibition at 0.00017 µM / inhibition at 0.00051 µM / inhibition at 0.00152 µM / inhibition at 0.00457 µM / inhibition at 0.01372 µM / inhibition at 0.04115 µM / inhibition at 0.12346 µM / inhibition at 0.37037 µM / inhibition at 10 µM / inhibition at 30 µM: read-out: Mean Inhibition (n = 3); for inhibition at 0.00017 µM: test conc. 0.17 nM; for inhibition at 0.00051 µM: test conc. 0.51 nM; for inhibition at 0.00152 µM: test conc. 1.52 nM; for inhibition at 0.00457 µM: test conc. 4.57 nM; for inhibition at 0.01372 µM: test conc. 13.72 nM; for inhibition at 0.04115 µM: test conc. 41.15 nM; for inhibition at 0.12346 µM: test conc. 123.46 nM; for inhibition at 0.37037 µM: test conc. 370.37 nM; for inhibition at 10 µM: test conc. 10,000 nM; for inhibition at 30 µM: test conc. 30,000 nM; for Maximum inhibition observed in olaparib resistant A2780 cells: concentration range 0.06 nM to 30,000 nM; for Resistance of the olaparib resistant cells to other PARPis: olaparib resistant A2780 cells
Experimental: A2780 ovarian cancer cells (wild-type “WT”) were cultured in RPMI 1640 Medium with 10% Fetal Bovine Serum (FBS).
To obtain cells resistant to olaparib, the cells were cultured in cell culture medium (RPMI 1640 Medium with 10% FBS) supplemented with 20 μM olaparib for one month in order to generate A2780 cells resistant to olaparib (“R”). After a month the cells were continuously cultured in the cell culture medium (RPMI 1640 Medium with 10% FBS) supplemented with 10 μM olaparib prior to use and for up to two months to maintain the resistance.
The cells were harvested from a flask into cell culture medium (RPMI 1640 Medium with 10% FBS) and then counted. The cells were diluted with culture medium and 40 μL of cell suspension (1000 cells/well) was added into each well of a 384-well cell culture plate. The plate was covered with a lid and left at room temperature without shaking for 30 minutes. The plate was then transferred to an incubator at 37° C. and 5% CO2 and left overnight.
Test compounds were dissolved at a concentration of 30 mM in DMSO to create a stock solution. 45 μL of the stock solution was transferred to a 384 pp-plate. […] The plate was then spun at room temperature at 1,000 RPM for 1 minute. 40 nL of the diluted compound was then transferred from the compound source plate into the cell plate. The cell plate was then covered with a lid and placed in an incubator at 37° C. and 5% CO2 and left for 120 hours. 72 hours after treatment with the compound detection was conducted as discussed below.
CellTiter Glo® reagents were thawed and equilibrated to room temperature. The cell plate was then removed from the incubator and equilibrated at room temperature for 15 minutes. 30 μL of the CellTiter Glo® reagents were then added into each well (at 1:1 to culture medium). The contents was mixed for 2 minutes on an orbital shaker to induce cell lysis and then the plates were allowed to incubate at room temperature for 30 minutes. Luminescence was then measured on an Envision reader (Perkin Elmer).
The inhibition activity was calculated using the following formula:
Inhibition (%)=100×(Lumvehicle−Lumsample)/(Lumvehicle−Lumblank),
where Lumvehicle is the luminescence of cells treated with 0.1% DMSO and Lumblank is cells in the culture medium.
The IC50 was calculated by fitting the curve using Xlfit (v5.3.1.3), equation 201: […]

[2] = tested on: wildtype A2780 ovarian cancer cells; assay: CellTiter Glo proliferation inhibition, wild-type A2780 cells; type: cell-based; conditions: for IC50 / inhibition at 60 pM / inhibition at 0.00017 µM / inhibition at 0.00051 µM / inhibition at 0.00152 µM / inhibition at 0.00457 µM / inhibition at 0.01372 µM / inhibition at 0.04115 µM / inhibition at 0.12346 µM / inhibition at 0.37037 µM / inhibition at 10 µM / inhibition at 30 µM: Homo sapiens; for IC50: A2780; for inhibition at 60 pM / inhibition at 0.00017 µM / inhibition at 0.00051 µM / inhibition at 0.00152 µM / inhibition at 0.00457 µM / inhibition at 0.01372 µM / inhibition at 0.04115 µM / inhibition at 0.12346 µM / inhibition at 0.37037 µM / inhibition at 10 µM / inhibition at 30 µM / Mean Inhibition (n = 3): wildtype A2780; for inhibition at 60 pM: test conc. 0.06 nM; for inhibition at 60 pM / inhibition at 0.00017 µM / inhibition at 0.00051 µM / inhibition at 0.00152 µM / inhibition at 0.00457 µM / inhibition at 0.01372 µM / inhibition at 0.04115 µM / inhibition at 0.12346 µM / inhibition at 0.37037 µM / inhibition at 10 µM / inhibition at 30 µM: read-out: Mean Inhibition (n = 3); for inhibition at 0.00017 µM: test conc. 0.17 nM; for inhibition at 0.00051 µM: test conc. 0.51 nM; for inhibition at 0.00152 µM: test conc. 1.52 nM; for inhibition at 0.00457 µM: test conc. 4.57 nM; for inhibition at 0.01372 µM: test conc. 13.72 nM; for inhibition at 0.04115 µM: test conc. 41.15 nM; for inhibition at 0.12346 µM: test conc. 123.46 nM; for inhibition at 0.37037 µM: test conc. 370.37 nM; for inhibition at 10 µM: test conc. 10,000 nM; for inhibition at 30 µM: test conc. 30,000 nM; for Maximum inhibition observed in wild-type A2780 cells: concentration range 0.06 nM to 30,000 nM
Experimental: The A2780 cell line is an ovarian cancer cell line that was established from an ovarian endometroid adenocarcinoma tumour. […] It is commonly used as a model to observe the effects of, and test the potency of various chemicals, methods of delivery and treatments for ovarian cancer. […] The cells were diluted with culture medium and 40 μL of cell suspension (1000 cells/well) was added into each well of a 384-well cell culture plate. The plate was covered with a lid and left at room temperature without shaking for 30 minutes. The plate was then transferred to an incubator at 37° C. and 5% CO2 and left overnight. Test compounds were dissolved at a concentration of 30 mM in DMSO to create a stock solution. 45 μL of the stock solution was transferred to a 384 pp-plate. […] The plate was then spun at room temperature at 1,000 RPM for 1 minute. 40 nL of the diluted compound was then transferred from the compound source plate into the cell plate. The cell plate was then covered with a lid and placed in an incubator at 37° C. and 5% CO2 and left for 120 hours. 72 hours after treatment with the compound detection was conducted as discussed below. CellTiter Glo® reagents were thawed and equilibrated to room temperature. The cell plate was then removed from the incubator and equilibrated at room temperature for 15 minutes. 30 μL of the CellTiter Glo® reagents were then added into each well (at 1:1 to culture medium). The contents was mixed for 2 minutes on an orbital shaker to induce cell lysis and then the plates were allowed to incubate at room temperature for 30 minutes. Luminescence was then measured on an Envision reader (Perkin Elmer). The inhibition activity was calculated using the following formula: […]

Molecule `NC(=O)c1cccc2cn(-c3ccc([C@@H]4CCCNC4)cc3)nc12` [Niraparib, niraparib] has an IC50 [1] of 17.3 µM, an inhibition at 60 pM [1] of -1.98% and an inhibition at 0.00017 µM [1] of 0.32%. For the same molecule, the inhibition at 0.00051 µM [1] was -2.36%, the inhibition at 0.00152 µM [1] was 2.95% and the inhibition at 0.00457 µM [1] was -0.19%. The inhibition at 0.01372 µM [1] was -1.43%, the inhibition at 0.04115 µM [1] was 0.1% and the inhibition at 0.12346 µM [1] was -0.8%. For the same molecule, the inhibition at 0.37037 µM [1] was -0.56%, the inhibition at 10 µM [1] was 18.9% and the inhibition at 30 µM [1] was 43.9%. The “Maximum inhibition observed in olaparib resistant A2780 cells” value [1] was 47%, the “Mean Inhibition (n = 3)” value ([1]; test conc. 1,111.11 nM) was −1.37% and the “Mean Inhibition (n = 3)” value ([1]; test conc. 3,333.33 nM) was 5.54%. For the same molecule, the “Resistance of the olaparib resistant cells to other PARPis” value [1] was “resistant”, the IC50 [2] was 2.09 µM and the inhibition at 60 pM [2] was 0.39%. It also gave an inhibition at 0.00017 µM [2] of -3.72%, an inhibition at 0.00051 µM [2] of -0.34% and an inhibition at 0.00152 µM [2] of 0.03%. For the same molecule, the inhibition at 0.00457 µM [2] was 0.18%, the inhibition at 0.01372 µM [2] was 0.97% and the inhibition at 0.04115 µM [2] was -0.46%. It also gave an inhibition at 0.12346 µM [2] of 3.18%, an inhibition at 0.37037 µM [2] of 12.3% and an inhibition at 10 µM [2] of 66.2%. For the same molecule, the inhibition at 30 µM [2] was 73.3%, the “Maximum inhibition observed in wild-type A2780 cells” value [2] was 75% and the “Mean Inhibition (n = 3)” value ([2]; test conc. 1,111.11 nM) was 25.03%. For the same molecule, the “Mean Inhibition (n = 3)” value ([2]; test conc. 3,333.33 nM) was 48.63%.

`Cn1ncnc1[C@H]1c2n[nH]c(=O)c3cc(F)cc(c23)N[C@@H]1c1ccc(F)cc1` [Talazoparib, talazoparib] showed an IC50 [1] of 4.31 µM, an inhibition at 60 pM [1] of 5.28% and an inhibition at 0.00017 µM [1] of -0.08%. The inhibition at 0.00051 µM [1] was 6.18%, the inhibition at 0.00152 µM [1] was 2.33% and the inhibition at 0.00457 µM [1] was 3.63%. The inhibition at 0.01372 µM [1] was 4.9%, the inhibition at 0.04115 µM [1] was -1.18% and the inhibition at 0.12346 µM [1] was 2.95%. The inhibition at 0.37037 µM [1] was 9.21%, the inhibition at 10 µM [1] was 49% and the inhibition at 30 µM [1] was 64.3%. For the same molecule, the “Maximum inhibition observed in olaparib resistant A2780 cells” value [1] was 66%, the “Mean Inhibition (n = 3)” value ([1]; test conc. 1,111.11 nM) was 15.45% and the “Mean Inhibition (n = 3)” value ([1]; test conc. 3,333.33 nM) was 34.89%. The “Resistance of the olaparib resistant cells to other PARPis” value [1] was “resistant”, the IC50 [2] was 0.019 µM and the inhibition at 60 pM [2] was 0.69%. The inhibition at 0.00017 µM [2] was -0.65%, the inhibition at 0.00051 µM [2] was 2.86% and the inhibition at 0.00152 µM [2] was 6.64%. The inhibition at 0.00457 µM [2] was 23.4%, the inhibition at 0.01372 µM [2] was 35.8% and the inhibition at 0.04115 µM [2] was 46.3%. It also gave an inhibition at 0.12346 µM [2] of 56.3%, an inhibition at 0.37037 µM [2] of 64.5% and an inhibition at 10 µM [2] of 77.6%. The inhibition at 30 µM [2] was 78.9%, the “Maximum inhibition observed in wild-type A2780 cells” value [2] was 80% and the “Mean Inhibition (n = 3)” value ([2]; test conc. 1,111.11 nM) was 71.38%. For the same molecule, the “Mean Inhibition (n = 3)” value ([2]; test conc. 3,333.33 nM) was 76.54%.
